Source: article PMC8962522, “Direct interaction of TrkA/CD44v3 is essential for NGF-promoted aggressiveness of breast cancer cells” (Journal of Experimental & Clinical Cancer Research : CR, 2022)

What was measured:
MDA-MB-231 cells = assay: Clonogenicity assay, MDA-MB-231; assay type: cell-based; details: peptide 50 ng/mL, 2% FBS; versus control cells or scramble peptide; siCD44v3: 10 days after siRNA transfection
Procedure: The clonogenicity assay was performed to assess cell survival. MDA-MB-231 cells (250 cells/mL) were seeded into 6 plate wells (2% FBS medium; 2 mL/well). When the cells attached (within 3 h), they were treated with the peptide (scramble or P4; 50 ng/mL) or no peptide (control) and incubated for 24 h. The next day, a second-round treatment was performed. Three days later, the medium was changed, and the cells were incubated for another 5 days. After 10 days of culture, the medium was removed, and the cells were washed twice (PBS 1×), fixed (4% PAF for 30 min at RT), colored (violet crystal 2%; 30 min; RT) and washed twice (distilled water). Representative pictures of one well were taken, and the colonies were counted.
Therefore, in this study, we assessed TrkA binding to CD44v3 in MDA-MB-231 cells, which were used as TNBC model cells. […] Therefore, we evaluated the physiological consequences of TrkA/CD44v3 complex dissociation induced by CD44v3 mimetic peptide 4 on MDA-MB-231 cell phenotypes (Fig. 4). […] We first determined the effect of CD44v3 on the length-to-width (l/w) ratio of the cells (elongation factor) (Fig. 4C-E). […]
Fig. 4 CD44v3 mimetic peptide 4 inhibits MDA-MB-231 breast cancer cell growth and migration/invasion. Clonogenic MDA-MB-231 cell growth was measured after 10 days in the presence of a scramble peptide (SP) or CD44v3 mimetic peptide (P4) (A, B). […]

TrkA phosphorylation = assay: Western blot of TrkA phosphorylation; assay type: cell-based
From the text: To further elucidate the mechanism of action of CD44v3 mimetic peptide 4, we studied its effect on the TrkA signaling pathway. First, we performed western blot analysis to determine the effect of mimetic peptide 4 on TrkA phosphorylation (Fig. 5A). […] Therefore, we performed acceptor (photo) bleaching (AB)-FRET to examine the effect of CD44v3 mimetic peptide 4 on NGF-induced RhoA activity in MDA-MB-231 cells transfected with a RhoA FRET biosensor [18] (Fig. 5B). […] Additionally, to confirm that this effect was independent of TrkA phosphorylation, we measured RhoA activation in MDA-MB-231 cells expressing dead TrkA kinase, which cannot be phosphorylated (Fig. 5D). […] Furthermore, a similar decrease in RhoA activation was obtained using the TrkA-H112A mutation, which also prevents the formation of the TrkA/CD44v3 complex in the absence or presence of the TrkA kinase inhibitor k252A (Supplementary Fig. 11B & C, Supplementary Video 1 & 2).
Fig. 5 CD44v3 is implicated in the phospho-TrkA-independent activation of RhoA GTPase. Phosphorylation of TrkA was measured in the presence of a scramble peptide or CD44v3 mimetic peptide 4 (P4) in the presence or absence of NGF (A). Schematic representation of the Rho biosensor; (B). […] Phosphorylation of TrkA and downstream Akt in wild-type MDA-MB-231 and MDA-MB-231 cells expressing kinase-dead TrkA, as determined by western blotting (D). […]

IDDDEDFISST [Peptide 4, mimetic peptide 4 (…) corresponding to the C-terminal region of CD44v3]
effect on clonogenic growth of MDA-MB-231 cells (MDA-MB-231 cells): reduced the proportion of MDA-MB-231 colony forming units by two-thirds
effect on NGF-induced TrkA phosphorylation (TrkA phosphorylation): did not inhibit TrkA phosphorylation induced by NGF
